{"source": "patent US20140030808A1", "about": "“Method for Cellular RNA Expression” (BIONTECH AG, priority 2010, published 2014)", "key": {"[1]": {"test_system": "Primary human foreskin fibroblasts (BJ, CCD1079Sk)", "assay": "GFP expression by flow cytometry (MFI) in fibroblasts electroporated with IVT RNA", "assay_type": "cell-based", "experimental": "(AB) Primary human foreskin fibroblasts from different donors and suppliers (panel A: BJ fibroblasts; panel B CCD1079Sk) and (C) MEFs were electroporated with 0.5 μg IVT RNA encoding for firefly luciferase and 1.25 μg IVT RNA encoding for enhanced GFP (eGFP). The cells were plated into […] at a density of 250000 cells/well. The cells were either left untreated or incubated with increasing amounts of C13H8N4OS (PKR-inhibitor) ranging from 0.5 μM to 2 μM as indicated in the panel legends. GFP expression was measured by flow cytometry at the indicated time points. The mean fluorescence intensity (MFI) of the transfected GFP-positive cell fractions is shown.\nTransfer of IVT-RNA into cells was performed by electroporation (EP). […]\nFor quantification of d2eGFP and eGFP protein, cells were washed in PBS, fixed using PBS supplemented with 2% formaldehyde and analyzed by flow cytometry on a FACS Canto II flow cytometer (BD Biosciences, Heidelberg, Germany). Gating was performed on living cells and mean fluorescence intensity (MFI) of GFP expressing cell populations was quantified using FlowJo software (Tree Star, Ashland, Oreg., USA). […] Gating was performed on living CD4+ and CD8+ T-cells and GFP expression and MFI of both T-cell subpopulations was determined by flow cytometry. […]"}, "CCD1079SK fibroblasts": {"test_system": "CCD1079SK fibroblasts", "assay": "Intracellular abundance and half-life of IVT-RNA constructs (qRT-PCR)", "assay_type": "cell-based, human", "experimental": "(A) CCD1079SK fibroblasts were either mock electroporated or electroporated with IVT RNA encoding for firefly luciferase (1 μg), eGFP (1.25 μg), SV40 Large T (1.25 μg), HPV16-E6 (1.25 μg), OCT4, SOX2, KLF4, cMYC, NANOG and LIN28 (2.5 μg OCT4 and equimolar amounts for the others). Electroporations were performed in 2 mm gap cuvettes using optimized parameters for CCDs. After electroporation cells were either left untreated or incubated with 2 μM C13H8N4OS for 24 h or 48 h. After 72 h cells were harvested to extract total RNA and perform qRT-PCR analysis for the codon optimized IVT-RNA constructs OCT4 and SOX2. […] Decay of transcripts was plotted against time and difference between half-lifes (t1/2) of the construct in absence or presence of C13H8N4OS was calculated (Δt1/2=t1/2 (+C13H8N4OS)−t1/2 (−C13H8N4OS)). […]\nTotal cellular RNA was extracted from cells with RNeasy Mini Kit or RNeasy Micro Kit (Qiagen, Hilden, Germany), reverse transcribed with oligo-dT18 using Superscript II (Invitrogen, Carlsbad, Calif., USA), and subjected to real-time quantitative analysis on ABI PRISM 7700 Sequence Detection System instrument and software (Applied Biosystems, Foster City, Calif., USA) using the QuantiTect SYBR Green PCR Kit (Qiagen). […]"}}, "data": [{"smiles": "O=C1Nc2ccc3ncsc3c2/C1=C/c1c[nH]cn1", "note": "[C13H8N4OS, 6,8-dihydro-8-(1H-imidazol-5-ylmethylene)-7H-pyrrolo[2,3-g]benzothiazol-7-one]", "values": [{"measurement": "GFP expression (MFI)", "setting": "[1]; 0.5 μM to 2 μM, human fibroblasts", "result": "dose dependent increase"}, {"measurement": "stabilization of GFP expression", "setting": "[1]; highest concentration used (2 μM)", "result": "high level of stabilization"}, {"measurement": "abundance of IVT RNA (OCT4, SOX2 constructs)", "setting": "CCD1079SK fibroblasts; 2 μM for 24 h or 48 h, harvested after 72 h", "result": "increased the abundance of IVT RNA for 72 h"}, {"measurement": "prolongation of half life of IVT RNA constructs OCT4, SOX2, KLF4 and cMYC (Δt1/2)", "setting": "CCD1079SK fibroblasts; 2 μM for 80 h, presence vs absence of C13H8N4OS", "result": "1 to 2.5", "unit": "h"}]}]}
